# Test results from paper PMC3025356, “Mechanism of the Ca^2+-Dependent Interaction between S100A4 and Tail Fragments of Nonmuscle Myosin Heavy Chain IIA” (Journal of Molecular Biology, 2011).
# Experiments:
# [1] = target: T1, S100A4 (Homo sapiens, UniProt P26447); details: peptide residues 1908–1923; cited from earlier work
# T1 construct: We used full-length S100A4 for this analysis; made in house; host or cells: Escherichia coli BL21(DE3)
# Source text: Our kinetic studies are also used to redefine the minimal binding fragment of the NM-MHC IIA tail (Fig. 1). Using a series of overlapping fragments and a blot overlay assay, Kriajevska et al. previously mapped the S100A4 binding site of nonmuscle myosin IIA to a 29-amino-acid region near the C-terminus (residues 1908–1936 in the current numbering system).[9]
# [2] = target: T1, S100A4; test: Competition of M32/M16^N with M200 for S100A4 (turbidity); format: biochemical; details: 250 μM peptide, 5 μM M200, 10 μM S100A4, Ca^2+
# Method: Fig. 9 Dissociation of M200 filaments by S100A4. (a) Initially, M200 was added (i) from a concentrated stock in 0.5 M NaCl to give a final concentration of 5 μM M200 (with respect to the polypeptide chain) in 100 mM NaCl, 10 mM Hepes, and 0.1 mM Ca^2+ at pH 7.5 and 20 °C. A biphasic rise in turbidity was recorded for 200 s (continuous line). Then 10 μM S100A4 (with respect to monomer concentration) was added (ii), followed by 0.2 mM EGTA (iii) and 1 mM Ca^2+ (iv). […] (b) M200 was diluted (i) into 100 mM NaCl to form filaments as in (a), then 5 μM S100A4 was added (ii), causing a 54% drop in turbidity. A further 5 μM S100A4 (iii) caused turbidity to fall to almost zero. (c) Stopped-flow records monitoring the dissociation of 5 μM M200 filaments on jumping [NaCl] from 100 mM to 120 mM NaCl. Other components of the buffer were 20 mM Hepes, 1 mM Mg^2+, and 100 μM Ca^2+ at pH 7.5 and 20 °C. […] In the presence of 20 μM S100A4 (lower trace), the turbidity decreased by 87% with a rate constant of 0.2 s^− 1.
# Further information on Scheme 2 was obtained from competition assays. […] An independent estimate of K5 based on the Ca^2+ dependence of the turbidity assay yielded a value of 0.003 μM (see Supplementary Data).
# The decrease in fluorescence, […]
# that F-M16N binding was slightly faster. […]
# A second estimate was calculated from the apparent Ca2+ binding constant observed in the turbidity assay […]
# [3] = target: T1, S100A4; test: Competition with F-M16^N binding to S100A4 (fluorescence anisotropy); details: read-out: Kd (K2) by competition
# Method: Titration (circles) was carried out in 20 mM NaCl, 10 mM Hepes, 1 mM Mg^2+, and 100 μM Ca^2+ at pH 7.5 and 20 °C. […] (squares).
# Fluorescence spectra and anisotropy measurements were recorded using an SLM 8000 spectrofluorimeter (SLM, Urbana, IL). Fluorescein anisotropy measurements were carried out in L-format using a 515-nm emission filter. The four combinations of vertical and horizontal polarisers (vv, vh, hh, and hv) were each recorded for 30 s, and then the initial setting (vv) was re-read to check for signal stability. Calculations of the total fluorescence (Ivv + 2Ivh) and anisotropy (Ivv − Ivh/(Ivv + 2Ivh)), corrected for the g factor (hh/hv), were performed using an Excel spreadsheet. […] Note that the small correction for the emission intensity weighting to the observed anisotropy was not applied to these competitive titrations as the error will tend to cancel.
# [4] = target: T1, S100A4; test: Quin-2 fluorescence, Ca^2+ dissociation from S100A4 in the presence of target peptides; format: binding; details: 50 μM peptide premixed with 10 μM S100A4; 100 mM NaCl, 10 mM Hepes, 100 μM Ca^2+, pH 7.5, 20 °C
# Method: Ca^2+ dissociation measurements for wild-type S100A4, using Quin-2 as described above, were repeated as a control for the effect of target peptides on this process. On mixing 10 μM S100A4 in the presence of Ca^2+ with 100 μM Quin-2, the observed profile was fitted to a single exponential with kobs = 17 s^− 1 (Fig. 5a; cf. k− 1 in Scheme 1).
# Fig. 5 Dissociation of Ca^2+ from S100A4 in the absence and in the presence of target peptides monitored using Quin-2 fluorescence. (a) Mixed with 100 μM Quin-2 was 10 μM S100A4 + 50 μM Ca^2+ (stopped-flow reaction chamber concentrations). A superposed fit to a single exponential yields kobs = 17 s^− 1. […] (d) As in (a), but with 2.5 μM M200 premixed with 5 μM S100A4. A biphasic exponential fit yielded rate constants of 13 s^− 1 (A = 26%) and 0.30 s^− 1 (A = 74%). […] Experiments were carried out in either 20 mM NaCl, 20 mM Tris, 1 mM DTT, and 100 μM Ca^2+ at pH 7.5 and 20 °C (a and b; cf. Malashkevich et al.[17]), or 100 mM NaCl, 10 mM Hepes, and 100 μM Ca^2+ at pH 7.5 and 20 °C (c and d). […] Rate constants were unaffected by the inclusion of 1 mM Mg^2+.
# Stopped-flow measurements were carried out using an SX18-MV apparatus (Applied Photophysics Ltd., Leatherhead, UK) with a dead time of 1.5 ms.[40] Records were generally captured on a logarithmic time base. Absorption (turbidity) measurements were usually recorded using a 10-mm pathlength, while fluorescence was recorded with a 2-mm pathlength for excitation and emission. The stated concentrations of components refer to the reaction chamber after mixing, unless otherwise indicated. Tyrosine fluorescence was excited at 280 nm, and the emission was collected through a UG11 bandpass filter plus a 305-nm longpass filter.[18] Fluorescein fluorescence was excited at 480 nm, and the emission was detected through a 515-nm longpass filter. Quin-2 fluorescence was measured by excitation at 336 nm, and emission was collected with a 455-nm longpass filter. For simultaneous recording of light scatter, a second channel was monitored through a UG11 filter. […]
# T1 sequence (P26447 whole entry, the tested form may be a part): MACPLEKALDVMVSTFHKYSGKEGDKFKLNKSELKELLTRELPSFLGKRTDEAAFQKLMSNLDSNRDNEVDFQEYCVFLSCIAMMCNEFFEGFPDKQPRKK
smiles,measurement,setting,value
CSCC[C@H](NC(=O)[C@H](C)NC(=O)[C@H](CC(=O)O)NC(C)=O)C(=O)N[C@@H](CC(N)=O)C(=O)N[C@@H](CCCNC(=N)N)C(=O)N[C@@H](CCC(=O)O)C(=O)N[C@H](C(=O)N[C@@H](CO)C(=O)N[C@@H](CO)C(=O)N[C@@H](CC(C)C)C(=O)N[C@@H](CCCCN)C(=O)N[C@@H](CC(N)=O)C(=O)N[C@@H](CCCCN)C(=O)N[C@@H](CC(C)C)C(=O)N[C@@H](CCCNC(=N)N)C(=O)N[C@@H](CCCNC(=N)N)C(N)=O)C(C)C [M16^N],"difference in binding constant vs longer fragments (1851–1960, 1893–1923)",[1],~2 -fold
same,inhibition of turbidity change amplitude,[2],no effect
same,Kd,[3],≥ 100 µM
same,"kobs, Ca^2+ dissociation with peptide",[4],16 s^− 1
